Results on 29 compounds are retold here after patent publication US20220235065A1 (Epizyme, Inc., priority 2016, published 2022).

Some results are limits rather than exact numbers.

In general, IC50 refers to the concentration needed to halve the response being measured.

This test deals with H3K9me2 in MDA-MB-231 cells. As to the kind of experiment: MDA-MB-231 H3K9me2 in-cell western assay. The class given is cell-based. The following applies: Homo sapiens, read-out: EHMT2 ICW (IC50 μM). From the text: MDA-MB-231 cell line was purchased from ATCC (Manassas, Va., USA). RPMI/Glutamax medium, Penicillin-Streptomycin, Heat Inactivated Fetal Bovine Serum, and D-PBS were purchased from Life Technologies (Grand Island, N.Y., USA). Odyssey blocking buffer, 800CW goat anti-mouse IgG (H+L) antibody, and Licor Odyssey Infrared Scanner were purchased from Licor Biosciences, Lincoln, Nebr., USA. H3K9me2 mouse monoclonal antibody (Cat #1220) was purchased from Abcam (Cambridge, Mass., USA). 16% Paraformaldehyde was purchased from Electron Microscopy Sciences, Hatfield, Pa., USA). MDA-MB-231 cells were maintained in complete growth medium (RPMI supplemented with 10% v/v heat inactivated fetal bovine serum) and cultured at 37° C. under 5% CO2. UNC0638 was purchased from Sigma-Aldrich (St. Louis, Mo., USA).
General Procedure for MDA-MB-231 HEK9me2 In-Cell Western Assay.
Compound (100 nL) was added directly to 384-well cell plate. MDA-MB-231 cells (ATCC) were seeded in assay medium (RPMI/Glutamax supplemented with 10% v/v heat inactivated fetal bovine serum and 1% Penicillin/Streptomycin, Life Technologies) at a concentration of 3,000 cells per well to a Poly-D-Lysine coated 384-well cell culture plate with 50 μL per well. Plates were incubated at 37° C., 5% CO2 for 48 hours (BD Biosciences 356697). Plates were incubated at room temperature for 30 minutes and then incubated at 37° C., 5% CO2 for additional 48 hours. After the incubation, 50 μL per well of 8% paraformaldehyde (Electron Microscopy Sciences) in PBS was added to the plates and incubated at room temperature for 20 minutes. Plates were transferred to a Biotek 406 plate washer and washed 2 times with 100 μL per well of wash buffer (1×PBS containing 0.3% Triton X-100 (v/v)). Next, 60 μL per well of Odyssey blocking buffer (Licor Biosciences) was added to each plate and incubated for 1 hour at room temperature. Blocking buffer was removed and 20 μL of monoclonal primary antibody α-H3K9me2 (Abcam) diluted 1:800 in Odyssey buffer with 0.1% Tween 20 (v/v) were added and plates were incubated overnight (16 hours) at 4° C. Plates were washed 5 times with 100 μL per well of wash buffer. Next 20 μL per well of secondary antibody was added (1:500 800CW […] anti-mouse IgG (H+L) antibody (Licor Biosciences), 1:1000 DRAQ5 (Cell Signaling Technology) in Odyssey buffer with 0.1% Tween 20 (v/v)) and incubated for 1 hour at room temperature. The plates were washed 5 times with 100 μL per well wash buffer then 2 times with 100 μL per well of water. Plates were allowed to dry at room temperature then imaged on a Licor Odyssey Infrared Scanner (Licor Biosciences) which measured integrated intensity at 700 nm and 800 nm wavelengths. Both 700 and 800 channels were scanned.
% Inhibition Calculation.
First, the ratio for each well was determined by
Each plate included fourteen control wells of DMSO only treatment (Minimum Inhibition) as well as fourteen control wells (background wells) for maximum inhibition treated with control compound UNC0638 (Background wells).
The average of the ratio values for each well was calculated and used to determine the percent inhibition for each test well in the plate. Control compound was serially diluted three-fold in DMSO for a total of 10 test concentrations beginning at 1 μM. Percent inhibition was calculated as: […]
IC50 curves were generated using triplicate wells per concentration of compound. The IC50 is the concentration of compound at which measured methylation is inhibited by 50% as interpolated from the dose response curves. IC50 values were calculated using a non-linear regression (variable slope-four parameter fit model) with by the following formula
where Top is fixed at 100% and Bottom is fixed to 0%, [I]=concentration of inhibitor, IC50=half maximal inhibitory concentration and n=Hill Slope.
For the compound `CNc1nc2cc(-c3cc4[nH]ccc4cn3)c(OC)cc2n1C` [Compound 209], the IC50 is greater than 10 µM. Turning to `CNc1cc(C)nc(Nc2ccc(OC)c(-c3cc4[nH]cnc4cn3)c2)n1` [Compound 210], the IC50 was in the range of 1 to 10 µM.

As to `CNc1cc(C)nc(Nc2ccc(OC)c(-n3cc([C@@H]4CCCN4)nn3)c2)n1` [Compound 212, (S)—N2-(4-methoxy-3-(4-(pyrrolidin-2-yl)-1H-1,2,3-triazol-1-yl)phenyl)-N4,6-dimethylpyrimidine-2,4-diamine], the IC50 was in the range of 0.1 to 1 µM. As for `CNc1cc(C)nc(Nc2ccc(OC)c(-n3cc([C@H]4CCCN4)nn3)c2)n1` [Compound 213], the IC50 was in the range of 0.1 to 1 µM. On to `CNC1=Nc2cc(-c3cc4[nH]ccc4cn3)c(OC)cc2C12CCC2` [Compound 214], for which the IC50 lay in the range of 0.1 to 1 µM. With `CNC1=Nc2cc(-c3cc4ccncc4[nH]3)c(OC)cc2C12CCC2` [Compound 215], the IC50 was in the range of 0.1 to 1 µM. `CNC1=Nc2cc(-c3[nH]c4cnccc4c3Cl)c(OC)cc2C12CCC2` [Compound 216]: the IC50 lay in the range of 0.1 to 1 µM. As to `CNc1cc(C)nc(Nc2ccc(OC)c(-c3ccc4c(c3)NC(=O)C4)c2)n1` [Compound 218], the IC50 lay within 1 to 10 µM.

With `CNc1cc(C)nc(Nc2ccc(OC)c(-c3cc4c(cn3)CC(=O)N4)c2)n1` [Compound 219], the IC50 is greater than 10 µM. Consider `CNc1cc(C)nc(Nc2ccc(OC)c(-c3cc4[nH]ccc4cn3)c2OC)n1` [Compound 220], for which the IC50 is greater than 10 µM. As to `CNc1cc(C)nc(Nc2ccc(OC)c(-c3cc4[nH]ccc4cn3)c2F)n1` [Compound 221], the IC50 lay within 0.1 to 1 µM. Next, `CNCc1cnn(-c2c(OC)ccc(Nc3nc(C)cc(NC)n3)c2OC)c1` [Compound 222]: 0.1 to 1 µM; `CNc1cc(C)nc(Nc2ccc(OC)c(-c3cnc4cc[nH]c4c3)c2)n1` [Compound 223]: 0.1 to 1 µM.

Regarding `CNc1cc(-c2cc(Nc3nc(C)cc(NC)n3)ccc2OC)ncn1` [Compound 225], the IC50 fell in the range of 1 to 10 µM. Consider `CNc1cc(C)nc(Nc2ccc(OC)c(-c3cc4[nH]ccc4nc3C)c2)n1` [Compound 228], for which the IC50 was 0.1 to 1 µM. For `CNc1cc(C)nc(Nc2ccc(OC)c(-c3cc4[nH]cc(F)c4cn3)c2)n1` [Compound 229], the IC50 was 0.1 to 1 µM. Turning to `CNc1cc(-c2cc(Nc3nc(C)cc(NC)n3)ccc2OC)nc(C)n1` [Compound 230], the IC50 lay within 1 to 10 µM. As to `COc1cc(NC2CCNCC2)ccc1-c1cc2[nH]ccc2cn1` [Compound 231], the IC50 was greater than 10 µM. For `CNc1cc(C)nc(Nc2ccc(OC)c(-c3cc(C4CC4)ncn3)c2)n1` [Compound 232], the IC50 lay in the range of 1 to 10 µM. Consider `CNc1cc(C)nc(Nc2ccc(OC)c(-c3cc(C4CC4)cnn3)c2)n1` [Compound 233], for which the IC50 was in the range of 1 to 10 µM.

For `CNc1cc(C)nc(Nc2ccc(OC)c(-c3cn4ccnc4cn3)c2)n1` [Compound 234], the IC50 was 1 to 10 µM.

For the compound `CNc1cc(C)nc(Nc2ccc(OC)c(-c3cc4cnoc4cn3)c2)n1` [Compound 235], the IC50 is greater than 10 µM.

As to `COc1cc(NC2CCNCC2)ccc1-c1cc(C2CC2)cnn1` [Compound 236], the IC50 is greater than 10 µM. Consider `CNc1cc(C)nc(Nc2ccc(OC)c(-c3cc4[nH]ccc4c(C)n3)c2)n1` [Compound 237], for which the IC50 is 0.1 to 1 µM. On to `CNC1=Nc2cc(-c3[nH]c4cnccc4c3C)c(OC)cc2C12CCC2` [Compound 238, 5′-methoxy-N-methyl-6′-(3-methyl-1H-pyrrolo[2,3-c]pyridin-2-yl)spiro[cyclobutane-1,3′-indol]-2′-amine], for which the IC50 is less than 0.1 µM. For the compound `CNc1cc(C)nc(Nc2ccc(C)c(C(=O)Nc3cccnc3)c2)n1` [Compound 239], the IC50 was greater than 10 µM. As for `CNc1cc(C)nc(Nc2ccc(Cl)c(C(=O)Nc3cccnc3)c2)n1` [Compound 240], the IC50 was greater than 10 µM. Consider `CNc1cc(C)nc(Nc2ccc(C)c(-c3cc4ccncc4[nH]3)c2)n1` [Compound 241], for which the IC50 was in the range of 0.1 to 1 µM.

`CNc1cc(C)nc(Nc2cccc(C(=O)Nc3cccnc3)c2)n1` [Compound 242]: the IC50 was greater than 10 µM.
